According to patent US11299472B2, “Fumarate salt of (R)-3-(1-(2,3-dichloro-4-(pyrazin-2-yl)phenyl)-2,2,2- trifluoroethyl)-1-methyl-1-(1-methylpiperidin-4-yl) urea, methods of preparation, and uses thereof” (Helsinn Healthcare SA, priority 2017, dated 2022):
Values belong to the compound of their own block, whether it stands above or below them. Ends that are not written are not given here.

What was measured:
[1] = test system: ghrelin-induced increase of GH; assay: Ghrelin-induced increase of growth hormone in rats; assay type: in vivo; conditions: after 15 μg/kg ghrelin i.v.
Method: Rats were divided into four groups: 1) 1 ml/kg saline plus 10 ml/kg 0.5% CMC p.o. (n=6); 2) 15 μg/kg ghrelin i.v. plus 10 ml/kg 0.5% CMC p.o. (n=6); 3) 30 mg/kg HM04 fumarate salt p.o. 2 hours before 15 μg/kg ghrelin i.v. (n=6); 4) 10 mg/kg ghrelin antagonist R011 i.p. 30 minutes before 15 μg/kg ghrelin i.v. (n=6). Blood was collected as 100 μl samples at time 0 and at 15 minutes after ghrelin injection. Rats were anesthetized with 64.8 mg/kg sodium pentobarbital. A catheter filled with heparinized saline solution was inserted in the left femoral artery for blood collection and fitted with an extension tube, 1-mL sampling syringe, and a 3-way cock to allow excess blood to return.
Plasma levels of growth hormone (GH) were determined using Rat GH ELISA (Millipore, Catalog No. EZRMGH-45K). Measurements were performed in duplicate. […] One-way and two-way ANOVA test was used to compare differences between groups. All values are presented as mean±SEM. One-way ANOVA was performed followed by Turkey's post hoc test where significance was indicated by p values<0.05 or p values<0.01.

[2] = GVS analysis (hygroscopicity); assay type: physicochemical
Method: For the GVS analysis, 15-20 mg of sample was loaded into an IgaSorp vapour sorption balance (Hiden Analytical Instruments). The sample was then dried by maintaining a 0% humidity environment until no further weight change was recorded. The sample was then subjected to a ramping profile from 0 to 90% RH at 10% RH increments, maintaining the sample at each step until equilibration had been attained (99% step completion). Upon reaching equilibrium, the % RH within the apparatus was ramped to the next step and the equilibration procedure repeated. After completion of the sorption cycle, the sample was dried using the same procedure. The weight change during the sorption/desorption cycles were then monitored, allowing for the hygroscopic nature of the sample to be determined.

[3] = Estimated aqueous solubility; assay type: physicochemical; conditions: aqueous (water)
[4] = Rat pharmacokinetic study, HM04 free base vs HM04 fumarate salt (Example 9); assay type: in vivo, male Sprague Dawley rats; conditions: 3 mg/kg oral
Method: The pharmacokinetics of HM04 in plasma of male Sprague Dawley rats dosed with a single oral administration of 3 mg/kg HM04 (based on the weight of the free base) formulated in a solution of 10% DMAC, 6% Solutol, and 84% PBS using either the HM04 free base or HM04 fumarate salt were compared. Blood samples were withdrawn at set time intervals and plasma concentration of HM04 was measured by LC-MS/MS. A comparison of the plasma concentration of HM04 (ng/mL) over time in rats dosed orally with HM04 free base and HM04 fumarate salt is provided in FIG. 17.

[5] = Dog pharmacokinetic study, HM04 free base vs HM04 fumarate salt (Example 9); assay type: in vivo, male Beagle dogs
Method: The pharmacokinetics of HM04 in plasma of male Beagle dogs dosed with a single oral administration of 2 mg/kg HM04 formulated in a solution of 10% DMAC, 6% Solutol, and 84% PBS using either the HM04 free base or HM04 fumarate salt were compared. A comparison of the plasma concentration of HM04 (ng/mL) over time in dogs dosed orally with HM04 free base and HM04 fumarate salt is provided in FIG. 18. Bioavailability was calculated from a dose normalized ratio of the oral mean AUC to the intravenous mean AUC (AUCpo/AUCiv×Doseiv/Dosepo).

[6] = Rat pharmacokinetic study, HM04 free base vs HM04 fumarate salt (Example 9); assay type: in vivo, male Sprague Dawley rats
[7] = Dog pharmacokinetic study, HM04 free base vs HM04 fumarate salt (Example 9); assay type: in vivo, male Beagle dogs; remark: listed apart in the source
[8] = test system: Snord116+/− (Het) mice and wild-type (WT) littermates; assay: Food intake after acute administration in Prader-Willi mouse model; assay type: in vivo; conditions: cabergoline 0.5 mg/kg single i.p., fasted 16 hours
Text: The effect of HM04 fumarate salt on food intake behavior and glucose tolerance was investigated in the Snord116+/−(Het) mouse genetic model of Prader-Willi syndrome (Het mouse) compared to wild-type (WT) littermates. Since D2R agonists suppress food intake, the FDA approved D2R agonist cabergoline was used as an experimental control. Phenotypic characteristics of this PWS mouse model include hyperphagia, postnatal growth retardation, high ghrelin, and low growth hormone. Ding F., et al. SnoRNA Snord116 (Pwcr1/MBII-85) deletion causes growth deficiency and hyperphagia in mice. PloS one. 2008; 3(3):e1709. These PWS mice eat more frequently than WT littermates, particularly during the light cycle and are more motivated to work for food (more level presses) (data not shown).
Acute administration: Mice (3-, 7-, and 12-month-old) were fasted for 16 hours and then administered a single intraperitoneal injection of vehicle or vehicle containing HM04, cabergoline, or HM04 and cabergoline according to Table 8, below.
HM04 was dissolved in water for injection and cabergoline was dissolved in DMSO to provide a 5% DMSO/water solution for injection. Mice were then given free access to food, and cumulative food intake was measured at 1, 2, 4, 8, 12, and 24 hours post-dosing. […] Data was analyzed for significance using 2-way ANOVA, Bonferroni post hoc test (Graphpad Prism, Prism 5.0, San Diego, Calif.).

[9] = male, Sprague Dawley, plasma, mean ± S.D., n=3
[10] = male, Beagle, plasma, 2 mg/kg oral, mean ± S.D., n=3

Compound: ghrelin: growth hormone-releasing peptide, injected i.v. to induce GH increase (GSSFLSPEHQRVQQRKESKKPPAKLQPR; ends and bridges not checked; UniProt Q9UBU3 24-51, looked up) [reference compound]
- mean plasma GH concentration [1]: 90 to 120 ng/mL

- hygroscopicity (GVS) [2]: slightly hygroscopic
- weight gain (GVS) ([2]; up to 70% relative humidity (RH)): approximately 1.5%
- weight gain (GVS) ([2]; up to 80% RH): approximately 2%
- solubility [3]: < 2000 µg/mL
- HM04 plasma concentration ([4]; 0.50 hours, mean ± S.D., n=3): 39.0 ± 5.2 ng/mL
- HM04 plasma concentration ([4]; 1 hour, mean ± S.D., n=3): 44.4 ± 6.0 ng/mL
- HM04 plasma concentration ([4]; 2 hours, mean ± S.D., n=3): 35.7 ± 11.3 ng/mL
- HM04 plasma concentration ([4]; 8 hours, mean ± S.D., n=3): 7.9 ± 5.8 ng/mL
- AUC(0-t) [4, 9]: 220 ± 57.2 ng·h/mL
- Tmax [4, 9]: 1 h
- concentration at 24 hours ([4]; male, Sprague Dawley, plasma, po, 3 mg/kg, 24 hours, N = 1 (two of three animals below level of quantification)): 2.4 ng/mL
- HM04 plasma concentration ([5]; 2 mg/kg oral, 0.25 hours, mean ± S.D., n=3): 8.94 ± 5.56 ng/mL
- HM04 plasma concentration ([5]; 2 mg/kg oral, 0.50 hours, mean ± S.D., n=3): 49.40 ± 7.72 ng/mL
- HM04 plasma concentration ([5]; 2 mg/kg oral, 2 hours, mean ± S.D., n=3): 74.05 ± 3.77 ng/mL
- bioavailability ([5]; male, Beagle, plasma, 2 mg/kg oral vs 1 mg/kg intravenous, dose normalized AUC ratio): 59.4 ± 9.11%
- AUC(0-t) [5, 10]: 929 ± 142 ng·h/mL
- Cmax [5, 10]: 74 ± 3.77 ng/mL
- Tmax [5, 10]: 2 h
- HM04 plasma concentration ([6]; 3 mg/kg oral, 0.25 hours, mean ± S.D., n=3): 24.2 ± 6.6 ng/mL
- HM04 plasma concentration ([6]; 3 mg/kg oral, 4 hours, mean ± S.D., n=3): 25.0 ± 13.0 ng/mL
- AUC ([6]; male, Sprague Dawley, plasma, 3 mg/kg intravenous, three rats, read-out: mean AUC following intravenous administration): 990 ± 24.6 ng·h/mL
- bioavailability ([6]; male, Sprague Dawley, plasma, 3 mg/kg oral vs 3 mg/kg intravenous mean AUC): 22.2 ± 5.8%
- Cmax ([6]; male, Sprague Dawley, plasma, 3 mg/kg oral, mean ± S.D., n=3): 44.4 ± 6 ng/mL
- HM04 plasma concentration ([7]; 2 mg/kg oral, 1 hour, mean ± S.D., n=3): 66.33 ± 4.25 ng/mL
- HM04 plasma concentration ([7]; 2 mg/kg oral, 4 hours, mean ± S.D., n=3): 67.34 ± 6.27 ng/mL
- AUC ([7]; male, Beagle, plasma, 1 mg/kg intravenous, three dogs, read-out: mean AUC following intravenous administration): 782 ± 364 ng·h/mL
- concentration at 8 h ([7]; male, Beagle, plasma, po, 2 mg/kg, 2 mg/kg oral, 8 hours, mean ± S.D., n=3): 49.2 ± 10.2 ng/mL
- concentration at 24 h ([7]; male, Beagle, plasma, po, 2 mg/kg, 2 mg/kg oral, 24 hours, mean ± S.D., n=3): 6.61 ± 4.38 ng/mL
Compound: CN1CCC(N(C)C(=O)N[C@H](c2ccc(-c3cnccn3)c(Cl)c2Cl)C(F)(F)F)CC1 [HM04 free base, (R)-3-(1-(2,3-dichloro-4-(pyrazin-2-yl)phenyl)-2,2,2-trifluoroethyl)-1-methyl-1-(1-methylpiperidin-4-yl) Urea]

Compound: C=CCN1C[C@H](C(=O)N(CCCN(C)C)C(=O)NCC)C[C@@H]2c3cccc4[nH]cc(c34)C[C@H]21 [Cabergoline, cabergoline, reference compound]
- cumulative food intake ([8]; 7-month-old Het mice): inhibited food intake
- cumulative food intake ([8]; 7-month-old WT mice): inhibited food intake
